One assay concerns the target T1, FLT3 (h) (Homo sapiens, UniProt P36888).
T1 construct: purchased Millipore UK Ltd (contract assay service)
T1 sequence (P36888 27-993): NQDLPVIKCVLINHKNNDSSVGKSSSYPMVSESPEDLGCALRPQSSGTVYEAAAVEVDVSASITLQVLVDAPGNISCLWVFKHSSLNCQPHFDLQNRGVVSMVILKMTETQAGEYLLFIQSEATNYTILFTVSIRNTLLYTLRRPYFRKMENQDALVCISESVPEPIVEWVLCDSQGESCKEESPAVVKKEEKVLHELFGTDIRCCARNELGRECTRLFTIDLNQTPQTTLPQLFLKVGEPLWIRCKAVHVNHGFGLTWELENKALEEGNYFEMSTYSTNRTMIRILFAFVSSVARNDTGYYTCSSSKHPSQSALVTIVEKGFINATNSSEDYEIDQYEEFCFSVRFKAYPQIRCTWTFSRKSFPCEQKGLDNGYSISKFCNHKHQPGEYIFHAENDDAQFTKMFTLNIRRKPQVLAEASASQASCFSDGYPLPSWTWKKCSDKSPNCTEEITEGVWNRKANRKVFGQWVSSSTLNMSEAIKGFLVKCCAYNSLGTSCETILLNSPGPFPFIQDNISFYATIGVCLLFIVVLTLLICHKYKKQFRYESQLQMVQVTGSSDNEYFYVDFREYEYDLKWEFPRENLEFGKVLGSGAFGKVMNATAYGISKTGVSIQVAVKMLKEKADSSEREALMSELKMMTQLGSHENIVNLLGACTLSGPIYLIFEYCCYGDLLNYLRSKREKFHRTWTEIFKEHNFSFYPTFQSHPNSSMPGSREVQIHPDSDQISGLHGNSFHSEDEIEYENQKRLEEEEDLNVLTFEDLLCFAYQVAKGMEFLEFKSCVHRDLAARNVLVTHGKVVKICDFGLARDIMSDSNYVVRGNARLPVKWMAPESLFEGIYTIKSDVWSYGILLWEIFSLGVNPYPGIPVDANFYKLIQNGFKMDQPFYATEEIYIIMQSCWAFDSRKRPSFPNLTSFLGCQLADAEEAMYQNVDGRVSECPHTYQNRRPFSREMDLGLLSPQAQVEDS
Briefly: FLT3 (h) kinase assay. The class given is biochemical. On the procedure:
Kinase assays can be performed by measurement of incorporation of γ-33P ATP into immobilized myelin basic protein (MBP). High binding white 384 well plates (Greiner) are coated with MBP (Sigma #M-1891) by incubation of 60 μL/well of 20 μg/mL MBP in Tris-buffered saline (TBS; 50 mM Tris pH 8.0, 138 mM NaCl, 2.7 mM KCl) for 24 h at 4° C. Plates are washed 3× with 100 μL TBS. Kinase reactions are carried out in a total volume of 34 μL in kinase buffer (according to the need to make, for example, 5 mM Hepes pH 7.6, 15 mM NaCl, 0.01% bovine gamma globulin (Sigma #I-5506), 10 mM MgCl2, 1 mM DTT, 0.02% TritonX-100). Compound dilutions are performed in DMSO and added to assay wells to a final DMSO concentration of 1%. Each data point is measured in duplicate, and at least two duplicate assays are performed for each individual compound determination. Enzyme is added to final concentrations of 10 nM or 20 nM, for example. A mixture of unlabeled ATP and γ-33P ATP is added to start the reaction (2×10^6 cpm of γ-33P ATP per well (3000 Ci/mmole) and 10 μM unlabeled ATP, typically. The reactions are carried out for 1 h at room temperature with shaking Plates are washed 7× with TBS, followed by the addition of 50 μL/well scintillation fluid (Wallac). Plates are read using a Wallac Trilux counter. This is only one format of such assays; various other formats are possible, as known to one skilled in the art.
(§1) The above assay procedure can be used to determine the IC50 for inhibition and/or the inhibition constant, Ki. The IC50 is defined as the concentration of compound required to reduce the enzyme activity by 50% under the condition of the assay. The IC50 value is estimated by preparing a 10 point curve using a ½ log dilution series (for example, a typical curve may be prepared using the following compound concentrations: 3 μM, 1 μM, 0.3 μM, 0.1 μM, 0.03 μM, 0.01 μM, 0.003 μM, 0.001 μM, 0.0003 μM and 0 μM).
FLT3 (h) is incubated with 8 mM MOPS pH 7.0, 0.2 mM EDTA, 50 μM EAIYAAPFAKKK, 10 mM MgAcetate and [γ-^33P-ATP] (specific activity approx. 500 cpm/pmol, concentration as required). The reaction is initiated by the addition of the MgATP mix. After incubation for 40 minutes at room temperature, the reaction is stopped by the addition of 3% phosphoric acid solution. 10 μL of the reaction is then spotted onto a P30 filtermat and washed three times for 5 minutes in 75 mM phosphoric acid and once in methanol prior to drying and scintillation counting.
(§2) The kinase assays described herein were performed at Millipore UK Ltd, Dundee Technology Park, Dundee DD2 1SW, UK.

The next assay concerns the target T2, JAK2 (h) (Homo sapiens, UniProt O60674).
T2 construct: purchased Millipore UK Ltd (contract assay service)
Put plainly: JAK2 (h) kinase assay. The class given is biochemical. On the procedure:
as §1
JAK2 (h) is incubated with 8 mM MOPS pH 7.0, 0.2 mM EDTA, 100 μM […], 10 mM MgAcetate and [γ-^33P-ATP] (specific activity approx. 500 cpm/pmol, concentration as required). The reaction is initiated by the addition of the MgATP mix. After incubation for 40 minutes at room temperature, the reaction is stopped by the addition of 3% phosphoric acid solution. 10 μL of the reaction is then spotted onto a P30 filtermat and washed three times for 5 minutes in 75 mM phosphoric acid and once in methanol prior to drying and scintillation counting.
as §2

The structures appear in SMILES notation.

T2 sequence (O60674 whole entry): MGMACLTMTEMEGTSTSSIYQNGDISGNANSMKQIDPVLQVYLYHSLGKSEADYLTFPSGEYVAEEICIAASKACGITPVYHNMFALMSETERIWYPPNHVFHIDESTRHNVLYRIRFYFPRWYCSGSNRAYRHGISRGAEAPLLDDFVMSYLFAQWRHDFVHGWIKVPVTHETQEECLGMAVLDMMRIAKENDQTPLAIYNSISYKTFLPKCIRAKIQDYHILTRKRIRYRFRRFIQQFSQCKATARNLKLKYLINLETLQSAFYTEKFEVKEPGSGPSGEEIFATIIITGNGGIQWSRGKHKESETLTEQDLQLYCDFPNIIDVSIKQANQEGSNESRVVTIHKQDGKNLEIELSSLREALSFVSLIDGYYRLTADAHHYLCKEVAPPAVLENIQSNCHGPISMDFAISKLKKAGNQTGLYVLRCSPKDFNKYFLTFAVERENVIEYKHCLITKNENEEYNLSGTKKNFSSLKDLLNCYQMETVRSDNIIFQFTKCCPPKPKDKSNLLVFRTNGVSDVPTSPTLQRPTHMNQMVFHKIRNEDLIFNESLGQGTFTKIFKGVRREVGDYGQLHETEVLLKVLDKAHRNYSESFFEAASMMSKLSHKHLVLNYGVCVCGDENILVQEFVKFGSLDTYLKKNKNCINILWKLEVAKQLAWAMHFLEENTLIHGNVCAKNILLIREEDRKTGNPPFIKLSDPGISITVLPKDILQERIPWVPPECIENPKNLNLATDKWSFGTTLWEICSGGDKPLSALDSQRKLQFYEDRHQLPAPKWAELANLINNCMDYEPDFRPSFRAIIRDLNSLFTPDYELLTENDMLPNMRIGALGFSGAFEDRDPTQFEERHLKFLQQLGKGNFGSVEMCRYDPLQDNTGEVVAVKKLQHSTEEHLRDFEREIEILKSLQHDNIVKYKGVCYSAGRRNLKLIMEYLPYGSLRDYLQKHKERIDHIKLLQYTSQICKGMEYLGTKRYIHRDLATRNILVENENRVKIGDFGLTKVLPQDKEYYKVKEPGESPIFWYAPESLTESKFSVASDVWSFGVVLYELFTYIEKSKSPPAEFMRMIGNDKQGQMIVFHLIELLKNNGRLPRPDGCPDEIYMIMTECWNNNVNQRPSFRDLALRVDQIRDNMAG

As for `Cn1cc(Nc2ncc(Cl)c(NC3CCN(c4ccc(C#N)cn4)CC3)n2)cn1` [Ex. 1, 6-(4-((5-chloro-2-((1-methyl-1H-pyrazol-4-yl)amino)pyrimidin-4-yl)amino)piperidin-1-yl)nicotinonitrile], the results for the IC50 at FLT3 (h) and against JAK2 (h) were 6 nM and 0.5 nM, respectively.

For the compound `Cc1nn(C)cc1Nc1ncc(Cl)c(NC2CCN(c3ccc(C#N)nn3)CC2)n1` [Ex. 11, 6-(4-((5-chloro-2-((1,3-dimethyl-1H-pyrazol-4-yl)amino)pyrimidin-4-yl)amino)piperidin-1-yl)pyridazine-3-carbonitrile], the IC50 on FLT3 (h) turned out to be 21 nM; against JAK2 (h) it was 2 nM.

Take `Cc1c2ccc(Nc3ncc(Cl)c(NC4CCN(c5ccc(C#N)cn5)CC4)n3)cc2nn1C` [Ex. 4]: the IC50 was 151 nM against FLT3 (h) and 2 nM against JAK2 (h).

Turning to `Cc1c2ccc(Nc3ncc(Cl)c(NC4CCN(c5ccc(C#N)nn5)CC4)n3)cc2nn1C` [Ex. 12, 6-(4-((5-chloro-2-((2,3-dimethyl-2H-indazol-6-yl)amino)pyrimidin-4-yl)amino)piperidin-1-yl)pyridazine-3-carbonitrile], the IC50 is 4 nM at FLT3 (h) and under 0.3 nM on JAK2 (h).

On to `CN(c1nc(Nc2cnn(C)c2)ncc1Cl)C1CCN(c2ccc(C#N)cn2)CC1` [Ex. 5, 6-(4-((5-chloro-2-((1-methyl-1H-pyrazol-4-yl)amino)pyrimidin-4-yl) (methyl)amino)piperidin-1-yl)nicotinonitrile], for which the IC50 was found to be 42 nM on FLT3 (h) and 17 nM against JAK2 (h).

On to `Cc1nn(C)cc1Nc1ncc(Cl)c(NC2CCN(c3ccc(C#N)cn3)CC2)n1` [Ex. 10, 6-(4-((5-chloro-2-((1,3-dimethyl-1H-pyrazol-4-yl)amino)pyrimidin-4-yl)amino)piperidin-1-yl)nicotinonitrile], for which the IC50 against FLT3 (h) came out at 9 nM; at JAK2 (h), 1 nM.

In the case of `Cc1cc(Nc2ncc(Cl)c(NC3CCN(c4ccc(C#N)nn4)CC3)n2)nn1C` [Ex. 13, 6-(4-((5-chloro-2-((1,5-dimethyl-1H-pyrazol-3-yl)amino)pyrimidin-4-yl)amino)piperidin-1-yl)pyridazine-3-carbonitrile], the IC50 against FLT3 (h) was found to be 48 nM; against JAK2 (h) it was 1 nM.

One may read the IC50 as the concentration that inhibits the measured activity by half. Low values mean inhibition by little substance, high ones a need for much substance.

(Values after patent US10059689B2, “Substituted heteroaryl compounds and methods of use” (Sunshine Lake Pharma Co., Ltd., priority 2014, dated 2018).)
